Results as given in patent publication US6756370B1, “Piperidine alcohols” (Merck Patent GmbH, priority 1999, dated 2004).
Counter-ions that a name gives are not always drawn. Like-named read-outs stand apart in the source and are kept apart here.

Columns and labels:
5-HT2A receptors = biological target: T1, 5-HT2A receptors (Rattus norvegicus, UniProt P14842); assay: 5-HT2A receptor binding test ([3H]ketanserin displacement)
T1 construct: Frontal rat cortex is homogenized in ice-cold buffer; from tissue; host or cells: rat frontal cortex homogenate (membrane pellet)
T1 sequence (P14842 whole entry): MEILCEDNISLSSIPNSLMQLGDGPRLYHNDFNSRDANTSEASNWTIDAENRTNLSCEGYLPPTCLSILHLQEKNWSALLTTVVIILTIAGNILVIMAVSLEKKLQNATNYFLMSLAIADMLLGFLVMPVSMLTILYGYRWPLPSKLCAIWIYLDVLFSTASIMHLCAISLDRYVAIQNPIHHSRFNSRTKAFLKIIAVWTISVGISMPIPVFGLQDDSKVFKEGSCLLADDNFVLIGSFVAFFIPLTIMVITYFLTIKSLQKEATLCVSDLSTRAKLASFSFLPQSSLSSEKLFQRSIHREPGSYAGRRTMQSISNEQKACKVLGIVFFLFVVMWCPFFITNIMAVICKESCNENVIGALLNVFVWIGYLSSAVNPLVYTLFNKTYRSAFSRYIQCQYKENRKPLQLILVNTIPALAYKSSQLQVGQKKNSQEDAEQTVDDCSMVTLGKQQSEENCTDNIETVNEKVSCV
Description: For the in-vitro detection of the affinity for 5-HT2A receptors, it is possible to use, for example, the following test (Example A1). The 5-HT2A receptors are exposed to both [^3H]ketanserin (a substance known for its affinity for the receptor) and the test compound. The decrease in the binding of [^3H]ketanserin to the receptor is a sign of the affinity of the test substance for the 5-HT2A receptor. Detection is carried out analogously to the description of J. E. Leysen et al., Molecular Pharmacology, 1982, 21: 301-314 or as also described, for example, in EP 0320983.
Preparation of a suspension of 5-HT2A receptors: Frontal rat cortex is homogenized in ice-cold buffer. The homogenate is centrifuged for 10 minutes at 4° C. and 50,000×[sic]. The pellet is resuspended in 2.5 ml of ice-cold tris buffer, made up with 10 ml of additional buffer and centrifuged as described [lacuna]. The pellet is then resuspended in buffer and diluted to give a homogenate which contains 60 mg of material/ml. 0.1 ml of the suspension, 100 μl of a 5 nM solution of [^3H]ketanserin, 100 μl of a solution of the test compound (concentration in the range from 10^−5 to 10^−10 mol per litre) are added to the incubation tubes and made up to 1 ml with buffer. The tubes are incubated for 15 minutes at 37° C. After termination of the incubation by immersing the tubes in an ice bath, the cooled suspension is filtered through a glass filter in vacuo. The filters are washed 3× with 5 ml of cold buffer and then transferred to scintillation tubes. The filters are analysed by means of liquid scintillation spectrometry in 8 ml of Triton X scintillator fluid.
The IC50 values are indicated for the binding tests.

[1] = tested on: DOI-induced head-twitching in mice; assay: DOI-induced head-twitching in mice (DOI antagonism); assay type: in vivo; conditions: male mice, test compound orally, 30 minutes later 3 mg/kg of DOI intraperitoneally, observed for 15 minutes
Excerpt: Serotonin-2(5-HT2)agonists such as 1-(2,5-dimethoxy-4-iodophenyl)-2-aminopropane (DOI) induce sterotypic behaviour patterns such as, for example, head-twitching or ear-scratching in various animals such as, for example, mice or rats (N. A. Darmani et al., Pharmacol. Biochem. Behav. 1989, 36: 901-906; N. A. Darmani et al., Pharmacol. Biochem. Behav. 1990, 37: 95-99; N. A. Darmani et al., Pharmacol. Biochem. Behav. 1994, 48: 383-396; D. L. Willins and H. Y. Meltzer, J. Pharmacol. Exp. Ther., 1997, 282: 699-706).
DOI-induced head-twitching in mice is used in order to test compounds having 5-HT2A antagonistic properties. The test compound is orally administered to male mice. 30 minutes later, 3 mg/kg of DOI is [sic] are administered intraperitoneally. The animals are observed for 15 minutes and the number of head twitches is noted. Quantification of the in vivo antagonistic effect of the test compounds ensues by comparison with the number of head twitches from those investigations in which the animals were only DOI-treated.

[2] = frontal rat cortex homogenate, 15 minutes at 37° C.

Row | Molecule | IC50 (5-HT2A receptors; [2]) [nM] | melting point [°C] | Inhibition [%], suppression of behaviour elicited (head-twitching in mice), DOI antagonism [1] [%] | IC50 (5-HT2A receptors; read-out: IC50 values (concentrations in mol/l at which 50% of the radioactive ligands are displaced from the binding sites), frontal rat cortex homogenate, 15 minutes at 37° C.) [nM]
1 | CC(O)(c1ccc(F)cc1F)C1CCN(CCc2ccc(Cl)s2)CC1 (racemic) | 5.5 | – | – | –
2 | CC(O)(c1ccc(F)cc1)C1CCN(CCc2ccc(Cl)s2)CC1 (racemic) [1-{1-[2-(5-chlorothiophen-2-yl)ethyl]piperidin-4-yl}-1-(4-fluorophenyl)ethanol] | 0.69 | – | – | –
3 | CC(O)(c1ccc(F)cc1)C1CCN(CCc2ccc(C#N)cc2)CC1 (racemic) | 27 | – | – | –
4 | CC(O)(c1ccc(F)cc1)C1CCN(CCc2ccc(Cl)s2)CC1.Cl (single isomer, unassigned; (+)) [(+)-1-{1-[2-(5-chlorothiophen-2-yl)ethyl]piperidin-4-yl}-1-(4-fluorophenyl)ethanol, hydrochloride] | 1.1 | 210 to 211 | 21 | –
5 | CC(O)(c1ccc(F)cc1F)C1CCN(CCc2ccc(F)cc2)CC1 (single isomer, unassigned) [listing 1 of 2 here] | 0.72 | – | – | –
6 | CC(O)(c1ccc(F)cc1)C1CCN(CCc2ccc(Cl)cc2Cl)CC1 (racemic) | 2 | – | – | –
7 | COc1cccc(C(O)C2CCN(CCc3ccc(F)cc3)CC2)c1OC (stereo not drawn) [Comparison from EP 0531410, (+)-α-(2,3-dimethoxyphenyl)-1-[2-(4-fluorophenyl)-ethyl]-4-piperidinemethanol, reference compound] | – | – | 0 | –
8 | CC(O)(c1ccc(Cl)s1)C1CCN(CCc2ccc(F)cc2)CC1 (racemic) [1-{1-[2-(4-fluorophenyl)ethyl]piperidin-4-yl}-1-(5-chlorothiophen-2-yl)ethanol] | 0.75 | 159 to 160 | 26 | –
9 | CC(O)(c1ccc(F)cc1)C1CCN(CCc2ccc(F)cc2F)CC1 (racemic) | 0.83 | – | – | –
10 | CC(O)(c1ccc(C(F)(F)F)cc1)C1CCN(CCc2ccc(Cl)s2)CC1 (racemic) | 8.6 | – | – | –
11 | CC(O)(c1ccc(F)cc1F)C1CCN(CCc2ccc(F)cc2)CC1 (single isomer, unassigned) [listing 2 of 2 here] | 2200 | – | – | –
12 | CC(O)(c1ccc(F)cc1)C1CCN(CCc2ccc(C(F)(F)F)cc2)CC1 (racemic) | 32 | – | – | –
13 | Cc1ccccc1CCN1CCC(C(C)(O)c2ccc(C(F)(F)F)cc2)CC1 (racemic) | 1.4 | – | – | –
14 | CC(O)(c1ccccc1)C1CCN(CCc2ccc(F)cc2)CC1.I (racemic) [R1=4-fluorophenyl, R2=phenyl, HI, rac, 1-{1-[2-(4-fluorophenyl)ethyl]piperidin-4-yl}-1-phenylethanol, hydroiodide] | 0.68 | 205 to 207 | – | –
15 | CC(O)(c1cccc2c1OCCO2)C1CCN(CCc2ccc(F)cc2)CC1.Cl (racemic) [1-{1-[2-(4-fluorophenyl)ethyl]piperidin-4-yl}-1-(benzo[1,4]dioxan-5-yl)ethanol, hydrochloride] | 3.7 | 209 to 212 | 9 | –
16 | CC(O)(c1ccc(Cl)cc1)C1CCN(CCc2ccc(Cl)s2)CC1.Cl (racemic) [1-{1-[2-(5-chlorothiophen-2-yl)ethyl]piperidin-4-yl}-1-(4-chlorophenyl)ethanol, hydrochloride] | 2.6 | 192 to 193 | 28 | –
17 | CC(O)(c1ccccc1)C1CCN(CCc2ccc(Cl)s2)CC1.I (racemic) [1-{1-[2-(5-chlorothiophen-2-yl)ethyl]piperidin-4-yl}-1-phenylethanol, hydroiodide] | 0.83 | 177 to 178 | – | –
18 | 1-{1-[2-(2,3-dimethoxy-phenyl)ethyl]piperidin-4-yl}-1-(4-fluorophenyl)ethanol, hydroiodide | – | – | – | 11
19 | CC(O)(c1ccc(Cl)cc1)C1CCN(CCc2ccc(F)cc2)CC1.Cl (racemic) [1-{1-[2-(4-fluorophenyl)ethyl]piperidin-4-yl}-1-(4-chlorophenyl)ethanol, hydrochloride] | 1.3 | 201 to 203 | 96 | –

The next lines start with results.

Row | IC50 (5-HT2A receptors; [2]) [nM] | melting point [°C] | Molecule | Inhibition [%], suppression of behaviour elicited (head-twitching in mice), DOI antagonism [1] [%] | IC50 (5-HT2A receptors; read-out: IC50 values (concentrations in mol/l at which 50% of the radioactive ligands are displaced from the binding sites), frontal rat cortex homogenate, 15 minutes at 37° C.) [nM]
20 | 4.2 | – | Cc1cc(CCN2CCC(C(C)(O)c3ccc(F)cc3)CC2)sc1Cl (racemic) | – | –
21 | 66 | – | Cc1nc(CCN2CCC(C(C)(O)c3ccc(F)cc3)CC2)cs1 (racemic) | – | –
22 | 21 | – | COc1ccc(CCN2CCC(C(C)(O)c3ccc(F)cc3)CC2)s1 (racemic) | – | –
23 | 220 | – | CC(O)(c1ccc(F)cc1)C1CCN(CCc2ccncc2)CC1 (racemic) [R1=4-pyridyl, R2=4-fluorophenyl, rac] | – | –
24 | 0.89 | – | Cc1ccc(CCN2CCC(C(C)(O)c3ccc(F)cc3)CC2)s1 (racemic) | – | –
25 | 2.2 | – | CC(O)(c1ccc(F)cc1)C1CCN(CCc2cc(Cl)sc2Cl)CC1 (racemic) | – | –
26 | 2.9 | – | CC(O)(c1ccc(F)cc1)C1CCN(CCc2ccc(F)cc2F)CC1 (single isomer, unassigned) [listing 1 of 2 here] | – | –
27 | 3.9 | – | CC(O)(c1ccc(F)cc1)C1CCN(CCc2ccc(Br)s2)CC1 (racemic) | – | –
28 | 250 | – | CC(O)(c1ccc(F)cc1)C1CCN(CCc2ccsc2)CC1 (single isomer, unassigned) [listing 1 of 2 here] | – | –
29 | 0.35 | – | CC(O)(c1ccc(F)cc1)C1CCN(CCc2ccc(F)cc2)CC1 (single isomer, unassigned; (+)) [(+)-1-{1-[2-(4-fluorophenyl)ethyl]piperidin-4-yl}-1-(4-fluorophenyl)ethanol, hydrochloride] | – | –
30 | 2.2 | – | CC(O)(c1ccc(F)cc1)C1CCN(CCc2ccsc2)CC1 (racemic) | – | –
31 | – | 222 to 223 | CC(O)(c1ccc(F)cc1)C1CCN(CCc2cccs2)CC1.Cl (racemic) [1-{1-[2-(thiophen-2-yl)ethyl]piperidin-4-yl}-1-(4-fluorophenyl)ethanol, hydrochloride] | – | –
32 | 57 | 185 to 186 | CC(O)(c1ccc(F)cc1)C1CCN(CCc2ccc(F)cc2)CC1.Cl (single isomer, unassigned; (-)) [(−)-1-{1-[2-(4-fluorophenyl)ethyl]piperidin-4-yl}-1-(4-fluorophenyl)ethanol, hydrochloride] | – | –
33 | 1.3 | 122 to 123 | CC(O)(c1ccc(F)cc1)C1CCN(CCc2ccc(F)cc2)CC1 (racemic) [1-{1-[2-(4-fluorophenyl)ethyl]piperidin-4-yl}-1-(4-fluorophenyl)ethanol] | – | –
34 | 3.3 | – | CC(O)(c1ccc(F)cc1)C1CCN(CCc2ccsc2)CC1 (single isomer, unassigned) [listing 2 of 2 here] | – | –
35 | 40 | – | CC(O)(c1ccc(F)cc1)C1CCN(CCc2ccc(F)cc2F)CC1 (single isomer, unassigned) [listing 2 of 2 here] | – | –
